# Legend:
# delta-5-desaturase = delta-5-desaturase (Homo sapiens, UniProt O60427); experiment: delta-5-desaturase activity; format: biochemical
# Excerpt: (§1) Essential fatty acids are precursors of eicosanoids and are important structural components of cell membranes. They also provide the substrates for the generation of lipid peroxidation products which have an inhibitory action on cell proliferation. Tumor cells are known to have low delta-6-desaturase activity, an enzyme necessary for the desaturation of dietary linoleic acid (LA, 18:2, n-6) and alpha-linolenic acid (ALA, 18:3, n-3) to their respective products. […] This selective tumoricidal action of fatty acids seems to be mediated by free radicals and lipid peroxides.
# delta-6-desaturase = delta-6-desaturase (Homo sapiens, UniProt O95864); experiment: delta-6-desaturase activity; format: biochemical
# delta-6-desaturase, sequence (O95864 whole entry, species assumed): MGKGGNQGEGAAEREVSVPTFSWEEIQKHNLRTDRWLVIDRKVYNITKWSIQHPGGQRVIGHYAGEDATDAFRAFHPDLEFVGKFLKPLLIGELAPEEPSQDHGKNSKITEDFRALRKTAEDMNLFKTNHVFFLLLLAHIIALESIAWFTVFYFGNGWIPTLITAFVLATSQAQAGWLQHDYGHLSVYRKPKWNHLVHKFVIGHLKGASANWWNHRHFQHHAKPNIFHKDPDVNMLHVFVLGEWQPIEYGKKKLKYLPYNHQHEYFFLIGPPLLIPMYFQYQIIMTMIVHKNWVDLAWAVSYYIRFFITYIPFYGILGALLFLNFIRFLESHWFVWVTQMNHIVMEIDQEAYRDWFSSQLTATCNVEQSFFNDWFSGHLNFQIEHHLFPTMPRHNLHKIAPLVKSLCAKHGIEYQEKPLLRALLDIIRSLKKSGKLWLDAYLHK
# Excerpt: as §1
# [1] = system: breast cancer cells, MCF-7; conditions: cited from earlier work
# [2] = system: Chinese Hamster V79 cells; conditions: in culture; cited from earlier work
# [3] = system: SOD (superoxide dismutase); conditions: cited from earlier work
# endothelial cells = conditions: read-out: half-maximal inhibitory concentration (IC50); cited from earlier work
# solid tumors = conditions: cited from earlier work
# p53 protein = conditions: cited from earlier work
# [4] = system: normal human skin fibroblasts; conditions: at 100 micro M concentration; cited from earlier work
# tumor cells = experiment: PUFA potentiation of anti-cancer drugs in tumor cells; format: cell-based; conditions: for cytotoxic action of doxorubicin, vincristine and cis-platinum: fatty acid added to anti-cancer drug
# KB-Ch^R-8-5 = experiment: vincristine resistant KB-ChR-8-5 tumor cells; format: cell-based
# hepatoma = hepatoma in rats; format: in vivo; conditions: pure fatty acid or fatty acid rich oils
# ascitic tumor cells = ascitic tumor cells in the peritoneum; format: in vivo; conditions: experimental animals; pure fatty acid or fatty acid rich oils
# [5] = system: TNF resistant L-929 tumor cells; experiment: TNF resistant L-929 tumor cells in vitro; format: cell-based; conditions: for killing of TNF resistant L-929 tumor cells: in vitro; for sensitisation of TNF-resistant L-929 cells to TNF: prior treatment with fatty acid
# skin papilloma = skin papilloma in mice; format: in vivo; conditions: pure fatty acid or fatty acid rich oils
# [6] = system: normal and tumor cells grown together; experiment: mixed culture of normal and tumor cells; format: cell-based
# Excerpt: (§2) Tumor cells are not only deficient in PUFAs but also have low rate(s) of lipid peroxidation and low amounts of superoxide dismutase (SOD), and contain relatively large amounts of antioxidants such as vitamin E. It is also believed that low rates of lipid peroxidation and consequent low amounts of lipid peroxides in the cells can contribute to an increase in the mitotic process which ultimately leads to an increase in cell proliferation. Thus, a deficiency of PUFAs, high amounts of antioxidants and the presence of low amounts of lipid peroxides in the tumor cells can contribute to the growth of tumor cells.
# [7] = system: tumor cells and normal cells; experiment: PUFAs on tumor cells and normal cells in vitro; format: cell-based; conditions: for killing of tumor cells versus normal cells: in vitro
# Excerpt: as §2, §1
# bone marrow cells = experiment: side effects of anti-cancer agents on mouse bone marrow cells; format: in vivo; conditions: mice
# Excerpt: […], it is desirable that PUFAs should be delivered to the patients in such a manner that they are easily available to the tumor cells and are delivered selectively to the tumor cells.
# [8] = system: primary and metastatic tumors; conditions: experimental animals; cited from earlier work
# endothelial cell = conditions: cited from earlier work
# [9] = system: proliferating endothelial cells; conditions: cited from earlier work
# [10] = system: bovine capillary endothelial cells; conditions: in vitro; cited from earlier work
# [11] = system: subcutaneous hemangioendothelioma; conditions: mice with hemangioendothelioma and disseminated intravascular coagulopathy; cited from earlier work
# [12] = system: free radical generation and lipid peroxidation; conditions: cited from earlier work
# [13] = proliferating endothelial cells
# delta-5-desaturase, sequence (O60427 whole entry, species assumed): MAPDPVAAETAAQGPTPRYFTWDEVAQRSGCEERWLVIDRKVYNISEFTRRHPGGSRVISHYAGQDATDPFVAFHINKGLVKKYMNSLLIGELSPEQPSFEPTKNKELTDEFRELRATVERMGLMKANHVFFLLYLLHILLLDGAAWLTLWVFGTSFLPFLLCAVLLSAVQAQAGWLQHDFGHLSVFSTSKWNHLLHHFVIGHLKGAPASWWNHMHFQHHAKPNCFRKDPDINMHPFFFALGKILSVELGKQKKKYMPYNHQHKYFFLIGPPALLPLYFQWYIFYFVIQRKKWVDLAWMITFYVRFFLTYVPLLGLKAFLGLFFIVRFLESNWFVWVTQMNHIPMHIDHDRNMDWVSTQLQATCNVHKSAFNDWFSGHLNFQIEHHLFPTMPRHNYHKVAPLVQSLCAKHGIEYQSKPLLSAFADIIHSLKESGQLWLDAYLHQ
molecule,measurement,setting,value
"CC(=O)Nc1ccc2c(c1)Cc1ccccc1-2 [2-AAF, 2-acetylaminofluorine]",activity of delta-5-desaturase,delta-5-desaturase,can suppress the activity
same,activity of delta-6-desaturase,delta-6-desaturase,can suppress the activity
"COc1cc2c(cc1O)CC[C@@H]1[C@@H]2CC[C@]2(C)[C@@H](O)CC[C@@H]12 [2-ME, 2-methoxyoestradiol]",action on MCF-7 cells,[1],cytotoxic action
same,growth of Chinese Hamster V79 cells,[2],suppres the growth
same,binding to SOD,[3],able to bind to SOD
same,IC50,endothelial cells,150 nM
same,general toxicity,solid tumors; in vivo,not associated with general toxicity
same,capillary formation in and growth of solid tumors,"solid tumors; oral administration, mice",inhibit capillary formation in solid tumors and reduce their growth
same,accumulation of p53 protein,p53 protein,induce the accumulation of p53 protein
same,effect on normal human skin fibroblasts,[4],no effect
"CCCCC/C=C\C/C=C\C/C=C\C/C=C\CCCC(=O)O [AA, arachidonic acid]",cellular uptake of anti-cancer drugs by tumor cells,tumor cells,enhance the cellular uptake
same,"cytotoxic action of doxorubicin, vincristine and cis-platinum",tumor cells,can be augmented
same,sensitisation of vincristine resistant cells to vincristine,KB-Ch^R-8-5,made sensitive to the cytotoxic action of vincristine
same,formation and growth of hepatoma,hepatoma,inhibit the growth
same,growth of ascitic tumor cells in the peritoneum,ascitic tumor cells,inhibit the growth
same,killing of TNF resistant L-929 tumor cells,[5],able to kill
same,sensitisation of TNF-resistant L-929 cells to TNF,[5],rendered TNF sensitive
same,growth of skin papilloma,skin papilloma,inhibit the growth
same,selective tumoricidal action in mixed culture,[6],effective to some extent
same,tumor cell proliferation,[7],decrease tumor cell proliferation
same,killing of tumor cells versus normal cells,[7],only tumor cells are killed
"CC/C=C\C/C=C\C/C=C\CCCCCCCC(=O)O [ALA, alpha-linolenic acid]",killing of tumor cells versus normal cells,[7],only tumor cells are killed
"CCN(CC)N=O [DEN, diethylnitrosamine]",activity of delta-5-desaturase,delta-5-desaturase,can suppress the activity
same,activity of delta-6-desaturase,delta-6-desaturase,can suppress the activity
"CCCCC/C=C\C/C=C\C/C=C\CCCCCCC(=O)O [DGLA, dihomo-GLA]",side effects of gamma-radiation and cis-platinum to bone marrow cells,bone marrow cells,prevent or ameliorate the side effects
same,cellular uptake of anti-cancer drugs by tumor cells,tumor cells,enhance the cellular uptake
same,"cytotoxic action of doxorubicin, vincristine and cis-platinum",tumor cells,can be augmented
same,sensitisation of vincristine resistant cells to vincristine,KB-Ch^R-8-5,made sensitive to the cytotoxic action of vincristine
same,formation and growth of hepatoma,hepatoma,inhibit the growth
same,growth of ascitic tumor cells in the peritoneum,ascitic tumor cells,inhibit the growth
same,killing of TNF resistant L-929 tumor cells,[5],able to kill
same,sensitisation of TNF-resistant L-929 cells to TNF,[5],rendered TNF sensitive
same,growth of skin papilloma,skin papilloma,inhibit the growth
same,tumor cell proliferation,[7],decrease tumor cell proliferation
same,killing of tumor cells versus normal cells,[7],only tumor cells are killed
"CC/C=C\C/C=C\C/C=C\C/C=C\C/C=C\C/C=C\CCC(=O)O [DHA, docosahexaenoic acid]","cytotoxic action of doxorubicin, vincristine and cis-platinum",tumor cells,can be augmented
"CC/C=C\C/C=C\C/C=C\C/C=C\C/C=C\CCCC(=O)O [EPA, eicosapentaenoic acid]",side effects of gamma-radiation and cis-platinum to bone marrow cells,bone marrow cells,prevent or ameliorate the side effects
same,"cytotoxic action of doxorubicin, vincristine and cis-platinum",tumor cells,can be augmented
"CCCCC/C=C\C/C=C\C/C=C\CCCCC(=O)O [GLA, gamma-linolenic acid]",side effects of gamma-radiation and cis-platinum to bone marrow cells,bone marrow cells,prevent or ameliorate the side effects
same,cellular uptake of anti-cancer drugs by tumor cells,tumor cells,enhance the cellular uptake
same,"cytotoxic action of doxorubicin, vincristine and cis-platinum",tumor cells,can be augmented
same,formation and growth of hepatoma,hepatoma,inhibit the growth
same,growth of ascitic tumor cells in the peritoneum,ascitic tumor cells,inhibit the growth
same,killing of TNF resistant L-929 tumor cells,[5],able to kill
same,tumor cell proliferation,[7],decrease tumor cell proliferation
same,killing of tumor cells versus normal cells,[7],only tumor cells are killed
"CCCCC/C=C\C/C=C\CCCCCCCC(=O)O [LA, linoleic acid]",killing of tumor cells versus normal cells,[7],only tumor cells are killed
CC\C=C/C=C/C=C/C=C\CCCCCCCC(=O)O [cis-parinaric acid],killing of tumor cells versus normal cells,[7],only tumor cells are killed
Endostatin®,primary and metastatic tumors,[8],dramatic reduction of primary and metastatic tumors
same,endothelial cell proliferation and angiogenesis,endothelial cell,specifically inhibit endothelial cell proliferation and angiogenesis
angiostatin®,cell cycle progression,[9],did not alter cell cycle progression significantly
same,adhesion activity,[9]; [13],enhanced the adhesion activity
same,change in expression of E-selectin,[9]; [13],4 to 5 fold
same,proliferation/growth of bovine capillary endothelial cells,[10],inhibit the growth of bovine capillary endothelial cells
same,size of the tumor,[11],significant reduction in the size of the tumor
same,survival,[11],increased survival
superoxide dismutase,"free radical generation and lipid peroxidation generated by GLA, EPA and DHA",[12],completely inhibit free radical generation and lipid peroxidation
vitamin E,"free radical generation and lipid peroxidation generated by GLA, EPA and DHA",[12],completely inhibit free radical generation and lipid peroxidation

# — patent US20020077317A1, “Method of potentating the action of 2-methoxyoestradiol, statins and C-peptide of proinsulin” (priority 2000, published 2002)
